Laboratory results reported in PubChem BioAssay AID248 (DTP/NCI, 2004).
Several values for one entry are separate records, joined by “and”; a condition that tells them apart may be missing. Equal values may be shown once. Toxic doses and inconclusive results are not listed. Rule as the data show it: active = T/C of 150% or more; inactive = T/C below 125%.

Test system: L1210 leukemia ip in BDF1 mice, survival T/C
Experiment: NCI In Vivo Anticancer Drug Screen. Data for tumor model L1210 Leukemia (intraperitoneal) in B6D2F1 (BDF1) mice
Conditions: endpoint: mean survival time, higher = longer survival
Outline: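 Read-out is survival time, reported as the treated-group measurement over the vehicle-control measurement.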

[1] = dose: 75.0 mg/kg/injection, schedule: Q01DX001 (ip), vehicle: saline
[2] = dose: 100.0 mg/kg/injection, schedule: Q01DX009 (ip), vehicle: saline with Tween-80
[3] = dose: 200.0 mg/kg/injection, schedule: Q01DX009 (ip), vehicle: saline with Tween-80
[4] = dose: 400.0 mg/kg/injection, schedule: Q01DX009 (ip), vehicle: saline with Tween-80
[5] = dose: 100.0 mg/kg/injection, schedule: Q01DX001 (ip), vehicle: saline
[6] = dose: 200.0 mg/kg/injection, schedule: Q01DX001 (ip), vehicle: saline
[7] = dose: 400.0 mg/kg/injection, schedule: Q01DX001 (ip), vehicle: saline
[8] = dose: 50.0 mg/kg/injection, schedule: Q01DX009 (ip), vehicle: saline with Tween-80
[9] = dose: 100.0 mg/kg/injection, schedule: Q01DX009 (ip), vehicle: Klucel (hydroxypropylcellulose) (HPC)
[10] = dose: 100.0 mg/kg/injection, schedule: Q04DX003 (ip), vehicle: Klucel (hydroxypropylcellulose) (HPC)
[11] = dose: 200.0 mg/kg/injection, schedule: Q01DX009 (ip), vehicle: Klucel (hydroxypropylcellulose) (HPC)
[12] = dose: 200.0 mg/kg/injection, schedule: Q04DX003 (ip), vehicle: Klucel (hydroxypropylcellulose) (HPC)
[13] = dose: 400.0 mg/kg/injection, schedule: Q01DX009 (ip), vehicle: Klucel (hydroxypropylcellulose) (HPC)
[14] = dose: 400.0 mg/kg/injection, schedule: Q04DX003 (ip), vehicle: Klucel (hydroxypropylcellulose) (HPC)
[15] = dose: 100.0 mg/kg/injection, schedule: Q04DX003 (ip), vehicle: saline with Tween-80
[16] = dose: 200.0 mg/kg/injection, schedule: Q04DX003 (ip), vehicle: saline with Tween-80
[17] = dose: 400.0 mg/kg/injection, schedule: Q04DX003 (ip), vehicle: saline with Tween-80

Measured: T/C

Cc1cn(C2CC(O)C(COC(c3ccccc3)(c3ccccc3)c3ccccc3)O2)c(=O)[nH]c1=O (stereo not drawn)
inactive: dose: 100.0 mg/kg/injection, schedule: Q01DX005 (ip), vehicle: saline 104 % of control | dose: 200.0 mg/kg/injection, schedule: Q01DX005 (ip), vehicle: saline 96 % of control

O=[N+]([O-])C(=C\c1ccccc1)/C(=C(/Br)[N+](=O)[O-])c1ccccc1
inactive: [1] 95 % of control | dose: 150.0 mg/kg/injection, schedule: Q01DX001 (ip), vehicle: saline 92 % of control

O=C(O)COc1ccccc1CO
inactive: dose: 100.0 mg/kg/injection, schedule: Q01DX001 (ip), vehicle: saline with Tween-80 91 % of control | [2] 88 % of control | dose: 200.0 mg/kg/injection, schedule: Q01DX001 (ip), vehicle: saline with Tween-80 94 % of control | [3] 94 % of control | dose: 400.0 mg/kg/injection, schedule: Q01DX001 (ip), vehicle: saline with Tween-80 92 % of control | [4] 91 % of control

Nc1nc(N)c(N=Nc2ccc(S(=O)(=O)Nc3ccccn3)cc2)c(=O)[nH]1
inactive: [5] 94 % of control | [6] 94 % of control | [7] 94 % of control

CCCCCCC(C)C1C(=O)NC(=S)NC1=O (stereo not drawn)
inactive: dose: 75.0 mg/kg/injection, schedule: Q01DX001 (ip), vehicle: carboxymethylcellulose (CMC) 93 % of control | dose: 150.0 mg/kg/injection, schedule: Q01DX001 (ip), vehicle: carboxymethylcellulose (CMC) 91 % of control | dose: 300.0 mg/kg/injection, schedule: Q01DX001 (ip), vehicle: carboxymethylcellulose (CMC) 94 % of control

SCCSCCNc1ccccc1
inactive: [8] 101 % of control | [2] 101 % of control | [3] 101 % of control

C1COC(NC2CC3CCC2C3)=N1 (stereo not drawn)
inactive: dose: 6.25 mg/kg/injection, schedule: Q01DX009 (ip), vehicle: saline with Tween-80 94 % of control | dose: 6.25 mg/kg/injection, schedule: Q04DX003 (ip), vehicle: saline with Tween-80 94 % of control | dose: 12.5 mg/kg/injection, schedule: Q01DX009 (ip), vehicle: saline with Tween-80 104 % of control | dose: 12.5 mg/kg/injection, schedule: Q04DX003 (ip), vehicle: saline with Tween-80 91 % of control | dose: 25.0 mg/kg/injection, schedule: Q01DX009 (ip), vehicle: saline with Tween-80 100 % of control | dose: 25.0 mg/kg/injection, schedule: Q04DX003 (ip), vehicle: saline with Tween-80 97 % of control

Cc1ccc(C)c(Br)c1C
inactive: [2] 104 % of control | dose: 100.0 mg/kg/injection, schedule: Q04DX002 (ip), vehicle: saline with Tween-80 104 % of control | [3] 104 % of control | dose: 200.0 mg/kg/injection, schedule: Q04DX002 (ip), vehicle: saline with Tween-80 101 % of control | [4] 101 % of control | dose: 400.0 mg/kg/injection, schedule: Q04DX002 (ip), vehicle: saline with Tween-80 101 % of control

O=[N+]([O-])/C=C\c1cc2ccccc2c2ccccc12
inactive: dose: 100.0 mg/kg/injection, schedule: Q01DX001 (ip), vehicle: carboxymethylcellulose (CMC) 94 % of control | dose: 200.0 mg/kg/injection, schedule: Q01DX001 (ip), vehicle: carboxymethylcellulose (CMC) 94 % of control | dose: 400.0 mg/kg/injection, schedule: Q01DX001 (ip), vehicle: carboxymethylcellulose (CMC) 94 % of control

CC(C)(C)NC(=O)NCc1cccnc1
inactive: dose: 100.0 mg/kg/injection, schedule: Q01DX009 (ip), vehicle: saline sonified 97 % of control | dose: 100.0 mg/kg/injection, schedule: Q04DX003 (ip), vehicle: saline sonified 100 % of control | dose: 200.0 mg/kg/injection, schedule: Q01DX009 (ip), vehicle: saline sonified 100 % of control | dose: 200.0 mg/kg/injection, schedule: Q04DX003 (ip), vehicle: saline sonified 87 % of control | dose: 400.0 mg/kg/injection, schedule: Q01DX009 (ip), vehicle: saline sonified 105 % of control | dose: 400.0 mg/kg/injection, schedule: Q04DX003 (ip), vehicle: saline sonified 94 % of control

c1ccc2cc(N=Nc3ccc4ccccc4c3)ccc2c1
inactive: [9] 98 % of control | [10] 95 % of control | [11] 97 % of control | [12] 92 % of control | [13] 102 % of control | [14] 94 % of control

CCOC(=O)c1ccc(=O)[nH]c1.[Ag]
inactive: dose: 6.25 mg/kg/injection, schedule: Q01DX009 (ip), vehicle: Klucel (hydroxypropylcellulose) (HPC) 94 % of control | dose: 12.5 mg/kg/injection, schedule: Q01DX009 (ip), vehicle: Klucel (hydroxypropylcellulose) (HPC) 90 % of control | dose: 25.0 mg/kg/injection, schedule: Q01DX009 (ip), vehicle: Klucel (hydroxypropylcellulose) (HPC) 90 % of control | dose: 50.0 mg/kg/injection, schedule: Q01DX009 (ip), vehicle: Klucel (hydroxypropylcellulose) (HPC) 86 % of control | [10] 95 % of control | [12] 92 % of control

CN(C)C(=O)CCCCC(=O)N(C)C
inactive: dose: 100.0 mg/kg/injection, schedule: Q04DX002 (ip), vehicle: saline 94 % of control | dose: 200.0 mg/kg/injection, schedule: Q04DX002 (ip), vehicle: saline 86 % of control | dose: 400.0 mg/kg/injection, schedule: Q04DX002 (ip), vehicle: saline 105 % of control

C[n+]1ccccc1/C=C/c1ccc(O)c(O)c1
inactive: [1] 96 % of control | dose: 300.0 mg/kg/injection, schedule: Q01DX001 (ip), vehicle: saline 102 % of control

CO[C@]12[C@@H](COC(=O)NCCO)C3=C(C(=O)C(C)=C(N)C3=O)N1C[C@@H]1[C@H]2N1C (stereo partly drawn)
inactive: [1] 112 % of control

COc1ccc2c(c1)C(=O)C1CC3(CCC21)OCCO3 (stereo not drawn)
inactive: [9] 101 % of control | [10] 109 % of control | [11] 97 % of control | [12] 93 % of control | [13] 95 % of control | [14] 100 % of control

CNC(=O)NC1CCC(C)CC1 (stereo not drawn)
inactive: [5] 95 % of control | [6] 95 % of control | [7] 97 % of control

CC1=C(O)C(=O)C=C2C1=CC=C1[C@@]2(C)CC[C@@]2(C)[C@@H]3C[C@](C)(C(=O)O)CC[C@]3(C)CC[C@]12C
inactive: dose: 5.0 mg/kg/injection, schedule: Q01DX001 (ip), vehicle: carboxymethylcellulose (CMC) 95 % of control and 100 % of control | dose: 10.0 mg/kg/injection, schedule: Q01DX001 (ip), vehicle: carboxymethylcellulose (CMC) 97 % of control | dose: 20.0 mg/kg/injection, schedule: Q01DX001 (ip), vehicle: carboxymethylcellulose (CMC) 103 % of control and 89 % of control | dose: 40.0 mg/kg/injection, schedule: Q01DX001 (ip), vehicle: carboxymethylcellulose (CMC) 122 % of control

CCOC(=O)Cc1cc(=O)c2ccc(Cl)cc2[nH]1
inactive: dose: 100.0 mg/kg/injection, schedule: Q01DX001 (ip), vehicle: other 92 % of control | dose: 200.0 mg/kg/injection, schedule: Q01DX001 (ip), vehicle: other 97 % of control | dose: 400.0 mg/kg/injection, schedule: Q01DX001 (ip), vehicle: other 92 % of control

Cc1cccc(C[As](=O)(O)O)c1
inactive: dose: 12.5 mg/kg/injection, schedule: Q04DX003 (ip), vehicle: Klucel (hydroxypropylcellulose) (HPC) 97 % of control | dose: 25.0 mg/kg/injection, schedule: Q04DX003 (ip), vehicle: Klucel (hydroxypropylcellulose) (HPC) 111 % of control

Cc1ccc(S(=O)(=O)N/N=C/C=C\C=N\NS(=O)(=O)c2ccc(C)cc2)cc1
inactive: [9] 98 % of control | [11] 96 % of control | [13] 90 % of control

CCCCCCc1ccc2c(c1)CC(CCCC)C2 (stereo not drawn)
inactive: dose: 50.0 mg/kg/injection, schedule: Q01DX001 (ip), vehicle: saline 101 % of control | [5] 104 % of control | [6] 98 % of control | [7] 101 % of control

CCc1occ(C(=O)OC)c1C(=O)OC
inactive: [2] 96 % of control | [15] 95 % of control | [3] 96 % of control | [16] 94 % of control | [4] 100 % of control | [17] 104 % of control

O=C(O)C1C(=O)OC2CCCCC21 (stereo not drawn)
inactive: [8] 88 % of control | [2] 88 % of control | [3] 95 % of control

CCCOC(c1ccc2c(c1)OCO2)C(C)Br (stereo not drawn)
inactive: [15] 97 % of control | [16] 94 % of control | [17] 94 % of control

CCC(N)(CO)CO
inactive: [15] 98 % of control | [16] 95 % of control | [17] 95 % of control
